Data: publication PMC8472287, “Betulinic Acid Decorated with Polar Groups and Blue Emitting BODIPY Dye: Synthesis, Cytotoxicity, Cell-Cycle Analysis and Anti-HIV Profiling” (Biomedicines, 2021)
Like-named read-outs stand apart in the source and are kept apart here.

Tests used:
U2OS-Nuc cell line = assay: Live cell imaging, pilot experiment; type: cell-based, human; settings: 10 µM, 1 h incubation
Description: U2OS cell line (ATCC, USA) was transduced with premade lentiviral particles (Vectalis-TaKaRa, Japan) with sequences that express fluorescent protein tag mCherry targeted to specific subcellular locations. All cell lines were prepared according to the vendor’s instructions. The U2OS-Nuc cell line was prepared by using rLV.EF1.mCherry-Nuc-9 (cat. n. 0023VCT), containing a NLS sequence that imports protein into the nucleus. The U2OS-ER cell line was transduced by rLV.EF1.mCherry-ER-9 (cat. n. 0025VCT), which contains a calreticulin signal sequence and a KDEL sequence that associates protein with the endoplasmic reticulum. The U2OS-GA cell line was transduced by rLV.EF1.mCherry-Golgi-9 (cat. n. 0022VCT), containing a human GT precursor, a protein localized in Golgi Apparatus. The U2OS-Mito cell line was prepared by using rLV.EF1.mCherry-Mito-9 (cat. n. 0024VCT), containing a mitochondrial targeting sequence.
U2OS cells with fluorescent fusion proteins (density 1.0 × 10^3 per well) were seeded into 384 CellCarrier plates (Perkin Elmer, Waltham, MA, USA) and pre-incubated for 24 h at 37 °C and 5% CO2. The attached cells were treated with tested compounds in concentration 10 µM for 1 h and subsequently rinsed with fresh media. The live-cell imaging was performed by Cell Voyager CV7000 (Yokogawa, Tokyo, Japan) spinning disc confocal microscopy system at 37 °C in a 5% CO2 atmosphere. Live cells were monitored by a 60 × water immersion objective. The fluorescent signal was excited by lasers (405 nm and 561 nm) and the emission was filtered by bandpass filters (BP 445/45 and BP 595/20). All images were post-processed, and Pearson’s and Mander’s coefficients were calculated using the JACoP plugin in Image-J software.

CCRF-CEM = assay: MTS cytotoxicity assay, CCRF-CEM; type: cell-based; settings: Homo sapiens, 72 h, 3-day incubation
Excerpt: (§1) All cells (if not indicated otherwise) were purchased from the American Tissue Culture Collection (ATCC; Manassas, VA, USA). The highly chemosensitive CCRF-CEM line is derived from T lymphoblastic leukaemia, K562 represent cells of chronic myelogenous leukaemia. Colorectal adenocarcinoma HCT116 cell line and its p53 gene knockout counterpart (HCT116p53−/−, Horizon Discovery Ltd., Cambridge, UK) were used as models to assess the impact of p53 deficiency on cell line sensitivity. A549 cells are derived from lung adenocarcinoma and U2OS from human osteosarcoma. CEM-DNR and K562-Tax are well-characterized daunorubicin and paclitaxel-resistant sublines of CCRF-CEM and K562. The CEM-DNR resistant cells overexpress the P-glycoprotein and LRP protein, the K562-Tax overexpress P-glycoprotein but is losing the expression of LRP, which is present at parental K562 cell line. P-glycoprotein belongs to the ABC transporters’ family and is involved in the primary and acquired multidrug resistance phenomenon by the efflux of toxic compounds, LRP protein is involved in the lysosomal degradation. MRC-5 and BJ cell lines were used as a non-tumour control and represent human fibroblasts. The cells were maintained in Nunc/Corning 80 cm^2 plastic tissue culture flasks and cultured in cell culture medium according to ATCC or Horizon recommendations (DMEM/RPMI 1640 with 5 g/L-glucose, 2 mM glutamine, 100 U/mL penicillin, […] streptomycin, 10% fetal calf serum, and NaHCO3).
(§2) To perform the cytotoxicity MTS assay, cell suspensions were prepared and diluted according to the cell type and the expected target cell density (25,000–35,000 cells/mL) based on cell growth characteristics. Cells were added by an automatic pipettor (30 μL) into 384 well microtiter plates. All tested compounds were dissolved in 100% DMSO and four-fold dilutions of the intended test concentration were added in 0.15 μL aliquots at time zero to the microtiter plate wells by the echo-acoustic liquid handler Echo550 (Labcyte, San Jose, CA, USA). The experiments were performed in technical duplicates and at least three biological replicates. The cells were incubated with the tested compounds for 72 h at 37 °C, in a 5% CO2 atmosphere at 99% humidity. At the end of the incubation period, the cells were assayed by using the MTS test. Aliquots (5 µL) of the MTS stock solution were pipetted into each well and incubated for an additional 1–4 h. After this incubation period, the optical density (OD) was measured at 490 nm with an Envision microplate reader (Perkin Elmer, Waltham, Massachusetts, USA). Tumour cell survival (TCS) was calculated using the following equation: TCS = (ODdrug-exposed well/mean ODcontrol wells) × 100%.

CEM-DNR = assay: MTS cytotoxicity assay, CEM-DNR; type: cell-based; settings: Homo sapiens, 72 h, CEM-DNR (daunorubicin resistant), 3-day incubation
Excerpt: as §1, §2

K562 = assay: MTS cytotoxicity assay, K562; type: cell-based; settings: Homo sapiens, 72 h, 3-day incubation
Excerpt: as §1, §2

K562-Tax = assay: MTS cytotoxicity assay, K562-Tax; type: cell-based; settings: Homo sapiens, 72 h, K562-Tax (paclitaxel-resistant), 3-day incubation
Excerpt: as §1, §2

A549 = assay: MTS cytotoxicity assay, A549; type: cell-based; settings: Homo sapiens, 72 h, 3-day incubation
Excerpt: as §1, §2

HCT116 = assay: MTS cytotoxicity assay, HCT116; type: cell-based; settings: Homo sapiens, HCT-116, 72 h, 3-day incubation
Excerpt: as §1, §2

HCT116p53−/− = assay: MTS cytotoxicity assay, HCT116p53−/−; type: cell-based; settings: Homo sapiens, HCT116-p53-null, 72 h, HCT116p53−/− (null p53 gene), 3-day incubation
Excerpt: as §1, §2

U2OS = assay: MTS cytotoxicity assay, U2OS; type: cell-based; settings: Homo sapiens, 72 h, 3-day incubation
Excerpt: as §1, §2

MRC-5 = assay: MTS cytotoxicity assay, MRC-5; type: cell-based; settings: Homo sapiens, MRC5, 72 h, MRC-5 normal fibroblasts, 3-day incubation
Excerpt: as §1, §2

BJ = assay: MTS cytotoxicity assay, BJ; type: cell-based; settings: Homo sapiens, 72 h, BJ normal fibroblasts, 3-day incubation
Excerpt: as §1, §2

CCRF-CEM lymphoblasts [1] = assay: BrDU incorporation analysis (DNA synthesis); type: cell-based, human; settings: 24 h incubation
Description: Cells were cultivated as in the method above and pulse-labelled with 10 μM 5-bromo-2-deoxyuridine (BrDU) for 30 min before collection to the test tubes. The cells were washed with cold 1 × PBS and fixed in ice-cold 70% ethanol. Before analysis, they were washed with 1 × PBS and incubated in 2M HCl for 30 min at room temperature. Following neutralization with 0.1M Na2B4O7 (borax), the cells were washed with 0.5% Tween-20 and 1% BSA in 1 × PBS. The cell pellets were stained using a primary anti-BrdU antibody (Exbio, Vestec, Czech Republic) for 30 min at room temperature and a secondary anti-mouse-FITC antibody (Sigma). The samples were then incubated with propidium iodide (0.1 mg mL^−1), treated with RNase A (0.5 mg mL^−1) for 1 h at room temperature in the dark and analysed as above.

CCRF-CEM lymphoblasts [2] = assay: BrU incorporation analysis (RNA synthesis); type: cell-based, human; settings: 24 h, 5 × IC50 (high concentration)
[3] = test system: CA-SP1 processing of HIV-1 Gag polyprotein; assay: Western blot of released virions with anti-HIV-1 CA antibody; type: cell-based
in vitro = settings: human
[4] = test system: VSV-G pseudotyped HIV-1 particles; assay: microbe, parasite or virus in culture; type: cell-based; settings: read-out: IC50i (50% infection inhibition)
[5] = Human immunodeficiency virus 1, HEK293, 48 h

In the case of `O=C(O)CCNC1=C2C=CC=[N+]2[B-](F)(F)n2cccc21` [BODIPY-CO2H, 8-N-(β-Alanyl)amino-4,4-difluoro-4-bora-3a,4a-diaza-s-indacene], the “detection in living cells” value (U2OS-Nuc cell line) is reported as “not detected”.

For `NCCCNC1=C2C=CC=[N+]2[B-](F)(F)n2cccc21` [BODIPY-NH2, 8-N-(3-Aminopropyl)amino-4,4-difluoro-4-bora-3a,4a-diaza-s-indacene], the “detection in living cells” value (U2OS-Nuc cell line) was “not detected”.

Compound `C=C(C)[C@@H]1CC[C@]2(C(=O)NCCCNC(=O)OC(C)(C)C)CC[C@]3(C)[C@H](CC[C@@H]4[C@@]5(C)CC[C@H](OC(=O)CC(C)(C)C(=O)O)C(C)(C)[C@@H]5CC[C@]43C)[C@@H]12` [Compound 8, 4-{[(3β)-28-({3-[(Tert-butoxycarbonyl)amino]propyl}amino)-28-oxolup-20(29)-ene-3--yl]oxy}-2,2-dimethyl-4-oxobutanoic acid] has an IC50 (CCRF-CEM) of 8.18 µM, an IC50 (CEM-DNR) of 9.24 µM and an IC50 (K562) of 19.2 µM. It also gave an IC50 (K562-Tax) of 13.3 µM, an IC50 (A549) of 18.8 µM and an IC50 (HCT116) of 13.2 µM. The IC50 (HCT116p53−/−) was 21.6 µM, the IC50 (U2OS) was 17.2 µM and the IC50 (MRC-5) was 23.1 µM. The IC50 (BJ) was 21.5 µM, the “fraction of proliferating BrDU positive CCRF-CEM cells (in words)” value (from here on “fraction”) (CCRF-CEM lymphoblasts [1]) was “reduced the fraction of proliferating BrDU positive CCRF-CEM cells” and the “RNA synthesis by BrU (in words)” value (CCRF-CEM lymphoblasts [2]) was “stalled RNA synthesis”. For the same compound, the “CA forms identified in released viruses (CA-SP1 processing)” value (shortened to “CA forms identified in released viruses”) [3] was “not only fully processed p24 CA, but also p25 CA-SP1 protein”, the “cytotoxic effect in the cell line panel (in words)” value (“cytotoxic effect” for short) (entire cell line panel) was “medium cytotoxicity” and the IC50 (in vitro) was 37.8 µM.

Work on `C=C(C)[C@@H]1CC[C@]2(C(=O)NCCCNC3=C4C=CC=[N+]4[B-](F)(F)n4cccc43)CC[C@]3(C)[C@H](CC[C@@H]4[C@@]5(C)CC[C@H](OC(=O)CC(C)(C)C(=O)O)C(C)(C)[C@@H]5CC[C@]43C)[C@@H]12` [Compound 10, 4-{[(3β)-28-{[N-(4,4-Difluoro-4-bora-3a,4a-diaza-s-indacene-8-yl)-3-aminopropyl]amino}-28-oxolup-20(29)-ene-3-yl]oxy}-2,2-dimethyl-4-oxobutanoic acid] yielded an IC50 (CCRF-CEM) of 2.92 µM, an IC50 (CEM-DNR) of 7 µM and an IC50 (K562) of 23.2 µM. The IC50 (K562-Tax) was 12.2 µM, the IC50 (A549) was 13.6 µM and the IC50 (HCT116) was 7.92 µM. For the same compound, the IC50 (HCT116p53−/−) was 8.8 µM, the IC50 (U2OS) was 12.4 µM and the IC50 (MRC-5) was 14.1 µM. For the same compound, the IC50 (BJ) was 15.5 µM, the “fraction” value (CCRF-CEM lymphoblasts [1]) was “reduced the fraction of proliferating BrDU positive CCRF-CEM cells” and the “RNA synthesis by BrU (in words)” value (CCRF-CEM lymphoblasts [2]) was “stalled RNA synthesis”. The IC50 [4, 5] was less than 10 µM, the IC50 [4] was 8.4 µM and the “CA forms identified in released viruses” value [3] was “not only fully processed p24 CA, but also p25 CA-SP1 protein”. The “cytotoxic effect” value (entire cell line panel) was “medium cytotoxicity” and the IC50 (in vitro) was greater than 40 µM.

`C=C(C)[C@@H]1CC[C@]2(C(=O)N3CCN(CCNC4=C5C=CC=[N+]5[B-](F)(F)n5cccc54)CC3)CC[C@]3(C)[C@H](CC[C@@H]4[C@@]5(C)CC[C@H](OC(=O)CC(C)(C)C(=O)O)C(C)(C)[C@@H]5CC[C@]43C)[C@@H]12` [Compound 18, 4-{[(3β)-28-{4-[N-(4,4-Difluoro-4-bora-3a,4a-diaza-s-indacene-8-yl)-2-aminoethyl]piperazine-1-yl}-28-oxolup-20(29)-ene-3-yl]oxy}-2,2-dimethyl-4-oxobutanoic acid] gave an IC50 (CCRF-CEM) of 8.61 µM, an IC50 (CEM-DNR) greater than 50 µM and an IC50 (K562) greater than 50 µM. It also gave an IC50 (K562-Tax) greater than 50 µM, an IC50 (A549) of 47.8 µM and an IC50 (HCT116) of 30.8 µM. For the same compound, the IC50 (HCT116p53−/−) was 45.5 µM, the IC50 (U2OS) was greater than 50 µM and the IC50 (MRC-5) was greater than 50 µM. The IC50 (BJ) was greater than 50 µM, the “fraction” value (CCRF-CEM lymphoblasts [1]) was “increased the percentage of cells incorporating BrDU” and the “RNA synthesis by BrU (in words)” value (CCRF-CEM lymphoblasts [2]) was “increased the percentage of BrU positive cells”. For the same compound, the IC50 [4, 5] was less than 10 µM, the IC50 [4] was 7.1 µM and the “CA forms identified in released viruses” value [3] was “not only fully processed p24 CA, but also p25 CA-SP1 protein”. For the same compound, the “cytotoxic effect” value (entire cell line panel) was “inactive” and the IC50 (in vitro) was greater than 40 µM.
